The target in this test is Mcl-1 protein (UniProtKB Q07820) (Homo sapiens (Human), UniProt Q07820). Nature of the test: Inhibition of Mcl-1 by the fluorescence polarisation assay (Example A, Method A). Type of test: binding. The following applies: fluorescence polarization assay. In short, it runs like this: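 Protein (5 nM) and fluorescein-tagged peptide tracer (1 nM) incubated with 11-point compound series for 2 h at room temperature in HEPES/NaCl/Tween 20 buffer, pH 7.4, 5% DMSO. Displacement read as decrease in polarisation; IC50 fitted by 4-parameter logistic, converted to Ki (cKi or eKi).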
Sequence of Mcl-1 protein (Q07820 whole entry): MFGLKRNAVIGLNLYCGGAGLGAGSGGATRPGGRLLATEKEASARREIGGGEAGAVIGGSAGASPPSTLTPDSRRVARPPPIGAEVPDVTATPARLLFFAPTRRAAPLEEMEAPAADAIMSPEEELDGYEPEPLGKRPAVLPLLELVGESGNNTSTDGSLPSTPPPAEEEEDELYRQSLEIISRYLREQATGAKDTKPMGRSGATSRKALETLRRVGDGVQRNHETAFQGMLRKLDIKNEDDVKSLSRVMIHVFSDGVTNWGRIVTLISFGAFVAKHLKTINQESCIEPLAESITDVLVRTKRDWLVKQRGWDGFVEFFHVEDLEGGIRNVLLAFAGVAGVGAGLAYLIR

On to `CN1c2ccc(CCc3ccccc3)cc2[C@]2(CC[C@](Nc3cccc(Br)c3)(C(=O)O)CC2)C1=O` [Example 11, (1r,4r)-4-(3-bromoanilino)-1′-methyl-2′-oxo-5′-(2-phenylethyl)-1′,2′-dihydrospiro[cyclohexane-1,3′-indole]-4-carboxylic acid], for which the Ki (in general, a measure of affinity in units of concentration, obtained from inhibition or displacement) was found to be 6.43 µM.
On to `C/C=C/c1ccc2c(c1)[C@]1(CC[C@](Nc3cccc(Br)c3)(C(=O)O)CC1)C(=O)N2C` [Example 12, (1r,4r)-4-(3-bromoanilino)-1′-methyl-2′-oxo-5′-[(1E)-prop-1-en-1-yl]-1′,2′-dihydrospiro[cyclohexane-1,3′-indole]-4-carboxylic acid], for which the Ki stood at 12.4 µM.
On to `O=C(O)[C@]1(Nc2cccc(Br)c2)CC[C@@]2(CC1)C(=O)N(Cc1ccccc1)c1ccccc12` [Example 13, (1r,4r)-1′-benzyl-4-(3-bromoanilino)-2′-oxo-1′,2′-dihydrospiro[cyclohexane-1,3′-indole]-4-carboxylic acid], for which the Ki was 7.08 µM.
Under `CN1c2ccc(C3CC3)cc2[C@]2(CC[C@](Nc3cccc(Br)c3)(C(=O)O)CC2)C1=O` [Example 15, (1r,4r)-4-(3-bromoanilino)-5′-cyclopropyl-1′-methyl-2′-oxo-1′,2′-dihydrospiro[cyclohexane-1,3′-indole]-4-carboxylic acid] stands 11.5 µM.
Next, `CN1c2ccccc2[C@]2(CC[C@@](Nc3cccc(Br)c3)(C(=O)O)CC2)C1=O` [Example 17, (1s,4s)-4-(3-bromoanilino)-1′-methyl-2′-oxo-1′,2′-dihydrospiro[cyclohexane-1,3′-indole]-4-carboxylic acid]: 23.1 µM; `C#Cc1ccc2c(c1)[C@]1(CC[C@](Nc3cccc(Br)c3)(C(=O)O)CC1)C(=O)N2C` [Example 18, (1r,4r)-4-(3-bromoanilino)-5′-ethynyl-1′-methyl-2′-oxo-1′,2′-dihydrospiro[cyclohexane-1,3′-indole]-4-carboxylic acid]: 31.9 µM.
Turning to `CN1c2ccc(/C=C/Cc3ccccc3)cc2[C@]2(CC[C@](Nc3cccc(Br)c3)(C(=O)O)CC2)C1=O` [Example 19, (1r,4r)-4-(3-bromoanilino)-1′-methyl-2′-oxo-5′-[(1E)-3-phenylprop-1-en-1-yl]-1′,2′-dihydrospiro[cyclohexane-1,3′-indole]-4-carboxylic acid], the Ki was 21.1 µM.
For the compound `Cc1cc(Br)cc2c1N(C)C(=O)[C@]21CC[C@@](Nc2cccc(Br)c2)(C(=O)O)CC1` [Example 20, (1r,4r)-5′-bromo-4-(3-bromoanilino)-1′,7′-dimethyl-2′-oxo-1′,2′-dihydrospiro[cyclohexane-1,3′-indole]-4-carboxylic acid], the Ki turned out to be 25.7 µM.
Regarding `CC1=Nc2ccccc2[C@]12CC[C@](Nc1cccc(Br)c1)(C(=O)O)CC2` [Example 22, (1r,4r)-4-(3-bromoanilino)-2′-methylspiro[cyclohexane-1,3′-indole]-4-carboxylic acid], the Ki was 24.1 µM.
Turning to `CC1N(C)c2ccccc2[C@]12CC[C@](Nc1cccc(Br)c1)(C(=O)O)CC2` (stereo partly shown) [Example 23, (1r,4r)-4-(3-bromoanilino)-1′,2′-dimethyl-1′,2′-dihydrospiro[cyclohexane-1,3′-indole]-4-carboxylic acid], the inhibition constant Ki was 1.08 µM.
Consider `CC1N(C)c2ccccc2[C@]12CC[C@@](Nc1cccc(Br)c1)(C(=O)O)CC2` (stereo partly shown) [Example 24, (1s,4s)-4-(3-bromoanilino)-1′,2′-dimethyl-1′,2′-dihydrospiro[cyclohexane-1,3′-indole]-4-carboxylic acid], for which the Ki is 19.9 µM.
Turning to `CC1N(C=O)c2ccccc2[C@]12CC[C@](Nc1cccc(Br)c1)(C(=O)O)CC2` (stereo partly shown) [Example 26, (1r,4r)-4-(3-bromoanilino)-1′-formyl-2′-methyl-1′,2′-dihydrospiro[cyclohexane-1,3′-indole]-4-carboxylic acid], the Ki is 42.8 µM.
Consider `CC1=Nc2ccc(Br)cc2[C@]12CC[C@](Nc1cccc(Br)c1)(C(=O)O)CC2` [Example 27, (1r,4r)-5′-bromo-4-(3-bromoanilino)-2′-methylspiro[cyclohexane-1,3′-indole]-4-carboxylic acid], for which the Ki was 36.3 µM.

Values taken from US20240150293A1, “SPIROCYCLOHEXANE DERIVATIVES, PHARMACEUTICAL COMPOSITIONS CONTAINING THEM AND THEIR USES AS ANTI-APOPTOTIC INHIBITORS” (LES LABORATOIRES SERVIER, priority 2021, published 2024).
